The test system of one data set is T1, PI3K.
T1 construct: other: purified recombinant enzyme, ATP 1 uM, 1 h room temperature
Type of data set: biochemical. As to conditions: purified recombinant enzyme, ATP 1 uM, 1 h room temperature; read-out: IC50 against PI3K. As to the method: The compound was serially diluted in 100% DMSO. The kinase reaction was incubated for 1 h at room temperature, and the reaction was terminated by the addition of PBS. IC50 values were subsequently determined using sigmoidal dose-response curve fit (variable slope).

The subject of another data set is range of cell lines. As to the kind of experiment: Cellular proliferation inhibition (Alamar Blue). The class given is cell-based. As to conditions: 96 h; 4 days incubation, range of cell lines utilized. As to the method:
Cells were seeded at optimal density in a 96 well plate and incubated for 4 days in the presence of test compound. Alamar Blue™ was subsequently added to the assay medium, and cells were incubated for 6 h before reading at 544 nm excitation, 590 nm emission. EC50 values were calculated using a sigmoidal dose response curve fit.

Another data set addresses T2, CYP450 1A2 (Homo sapiens, UniProt P05177).
T2 sequence (P05177 1-516): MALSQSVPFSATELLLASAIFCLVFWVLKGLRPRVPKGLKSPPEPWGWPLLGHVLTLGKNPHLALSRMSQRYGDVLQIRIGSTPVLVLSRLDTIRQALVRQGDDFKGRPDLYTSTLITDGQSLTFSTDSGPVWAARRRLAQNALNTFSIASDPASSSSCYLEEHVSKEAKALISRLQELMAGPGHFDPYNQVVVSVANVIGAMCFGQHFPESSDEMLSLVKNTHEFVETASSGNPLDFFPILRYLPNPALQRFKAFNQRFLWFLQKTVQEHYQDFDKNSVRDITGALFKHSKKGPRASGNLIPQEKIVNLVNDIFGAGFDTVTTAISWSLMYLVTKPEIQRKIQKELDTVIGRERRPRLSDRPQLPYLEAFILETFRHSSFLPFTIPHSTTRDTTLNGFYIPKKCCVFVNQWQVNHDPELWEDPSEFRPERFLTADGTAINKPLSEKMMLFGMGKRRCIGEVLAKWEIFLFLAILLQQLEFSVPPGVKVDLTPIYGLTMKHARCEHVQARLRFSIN
As to the kind of experiment: Cytochrome P450 inhibition. Type of data set: in vitro ADME. As to conditions: top concentration 100 uM. The text has this:
(§1) Standard inhibitors (furafylline, sulfaphenazole, tranylcypromine, quinidine, ketoconazole) were used as controls. Plates were read using a BMG LabTechnologies PolarStar in fluorescence mode.

Another data set concerns the target CYP450 2C19 (Homo sapiens, UniProt P33261). As to the kind of experiment: Cytochrome P450 inhibition. The class given is in vitro ADME. As to conditions: top concentration 100 uM.
Description: as §1

The target in a further data set is CYP450 2C9 (Homo sapiens, UniProt P11712). As to the kind of experiment: Cytochrome P450 inhibition. The class given is in vitro ADME. The conditions noted are these: top concentration 100 uM.
Description: as §1

The target of another data set is CYP450 2D6 (Homo sapiens, UniProt P10635). The data set can be described thus: Cytochrome P450 inhibition. The class given is in vitro ADME. The conditions noted are these: top concentration 100 uM.
Description: as §1

For the next data set, the target named is CYP450 3A4 (Homo sapiens, UniProt P08684). As to the kind of experiment: Cytochrome P450 inhibition. The class given is in vitro ADME. The conditions noted are these: top concentration 100 uM.
Description: as §1

Data set [1] in a line: Plasma protein binding (equilibrium dialysis). The class given is in vitro ADME. The conditions noted are these: 10% plasma (v/v in buffer), 37° C., read-out: fraction unbound (Fu). Here is the method: Solutions of test compound (5 um, 0.5% final DMSO concentration) were prepared in buffer and 10% plasma (v/v in buffer). A 96 well HT dialysis plate was assembled so that each well was divided in two by a semi-permeable cellulose membrane. The buffer solution was added to one side of the membrane and the plasma solution to the other side; incubations were then conducted at 37° C. over 2 h in triplicate. The cells were subsequently emptied, and the solutions for each batch of compounds were combined into two groups (plasma-free and plasma-containing) then analysed by LC-MSMS using two sets of calibration standards for plasma-free (6 points) and plasma-containing solutions (7 points).
In general terms: Equilibrium dialysis compares concentrations on both sides of a semipermeable membrane.

A short description of data set [2]: Aqueous solubility at physiological pH. Type of data set: physicochemical. The conditions noted are these: aqueous medium at physiological pH, pH 7.4, aqueous buffer.
A further data set can be described thus: in vitro. As to conditions: human, Caco-2.

Chain of CYP450 2C9 (P11712 whole entry): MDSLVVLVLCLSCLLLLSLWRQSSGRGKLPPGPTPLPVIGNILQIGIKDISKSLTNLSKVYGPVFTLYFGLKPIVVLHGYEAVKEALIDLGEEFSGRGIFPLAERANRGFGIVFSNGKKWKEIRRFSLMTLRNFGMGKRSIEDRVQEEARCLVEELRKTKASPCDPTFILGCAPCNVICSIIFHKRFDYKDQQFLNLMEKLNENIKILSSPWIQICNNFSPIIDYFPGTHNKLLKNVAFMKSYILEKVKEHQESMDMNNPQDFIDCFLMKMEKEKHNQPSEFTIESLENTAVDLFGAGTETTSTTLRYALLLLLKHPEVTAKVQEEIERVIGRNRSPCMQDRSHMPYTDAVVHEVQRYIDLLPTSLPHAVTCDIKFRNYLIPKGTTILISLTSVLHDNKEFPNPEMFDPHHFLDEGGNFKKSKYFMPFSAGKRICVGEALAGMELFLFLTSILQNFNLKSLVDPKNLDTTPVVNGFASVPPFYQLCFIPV
Chain of CYP450 2C19 (P33261 whole entry): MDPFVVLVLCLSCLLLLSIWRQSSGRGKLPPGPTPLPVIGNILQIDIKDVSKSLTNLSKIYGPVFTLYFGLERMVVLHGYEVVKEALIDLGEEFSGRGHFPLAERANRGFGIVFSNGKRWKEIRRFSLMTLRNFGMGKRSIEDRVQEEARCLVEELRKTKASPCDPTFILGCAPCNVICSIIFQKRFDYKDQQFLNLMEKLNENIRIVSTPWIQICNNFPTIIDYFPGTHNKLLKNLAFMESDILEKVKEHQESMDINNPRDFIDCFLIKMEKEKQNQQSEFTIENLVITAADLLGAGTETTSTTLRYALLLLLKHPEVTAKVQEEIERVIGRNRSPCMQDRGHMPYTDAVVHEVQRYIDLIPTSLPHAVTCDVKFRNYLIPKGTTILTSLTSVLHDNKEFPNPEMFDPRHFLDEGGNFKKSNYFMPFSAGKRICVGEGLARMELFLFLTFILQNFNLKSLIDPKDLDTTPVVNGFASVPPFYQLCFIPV
Chain of CYP450 3A4 (P08684 whole entry): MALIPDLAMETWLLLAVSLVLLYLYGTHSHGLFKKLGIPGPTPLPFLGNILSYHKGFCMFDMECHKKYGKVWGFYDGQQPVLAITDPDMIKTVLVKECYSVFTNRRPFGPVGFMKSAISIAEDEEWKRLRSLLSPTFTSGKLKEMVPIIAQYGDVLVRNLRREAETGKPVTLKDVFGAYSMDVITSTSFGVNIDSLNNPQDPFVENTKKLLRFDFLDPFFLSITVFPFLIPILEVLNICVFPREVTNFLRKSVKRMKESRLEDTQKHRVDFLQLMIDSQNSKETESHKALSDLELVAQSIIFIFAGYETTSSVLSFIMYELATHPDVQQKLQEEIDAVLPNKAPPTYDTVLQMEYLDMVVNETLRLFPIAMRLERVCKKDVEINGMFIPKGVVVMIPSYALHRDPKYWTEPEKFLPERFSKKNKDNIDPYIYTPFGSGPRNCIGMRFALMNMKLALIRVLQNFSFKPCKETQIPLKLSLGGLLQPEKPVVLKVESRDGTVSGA
Chain of CYP450 2D6 (P10635 whole entry): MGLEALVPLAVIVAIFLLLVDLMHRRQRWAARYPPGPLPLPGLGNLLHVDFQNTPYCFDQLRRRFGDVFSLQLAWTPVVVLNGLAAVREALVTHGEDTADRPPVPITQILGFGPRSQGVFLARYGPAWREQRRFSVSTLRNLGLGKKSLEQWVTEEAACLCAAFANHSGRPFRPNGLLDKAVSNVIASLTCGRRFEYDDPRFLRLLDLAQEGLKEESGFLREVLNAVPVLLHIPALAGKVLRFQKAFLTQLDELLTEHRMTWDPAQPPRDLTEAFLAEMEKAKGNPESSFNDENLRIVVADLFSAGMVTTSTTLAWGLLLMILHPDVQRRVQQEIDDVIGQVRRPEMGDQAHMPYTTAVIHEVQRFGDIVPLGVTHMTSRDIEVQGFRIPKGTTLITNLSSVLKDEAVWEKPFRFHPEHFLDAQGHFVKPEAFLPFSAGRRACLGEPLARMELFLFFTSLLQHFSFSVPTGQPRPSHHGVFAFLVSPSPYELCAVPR

Turning to `CS(=O)(=O)N1CCN(Cc2cc3nc(-c4cccc5[nH]ncc45)nc(N4CCOCC4)c3s2)CC1` [compound of the invention, 2-(1H-Indazol-4-yl)-6-(4-methanesulfonyl-piperazin-1-ylmethyl)-4-morpholin-4-yl-thieno[3,2-d]pyrimidine], the IC50 (as a rule, the midpoint of a concentration-inhibition curve) with PI3K is […]; on CYP450 1A2 it was no less than 5 µM; at CYP450 2C19, no less than 5 µM; on CYP450 2C9, no less than 5 µM; at CYP450 2D6, no less than 5 µM; against CYP450 3A4, no less than 5 µM. Also, in the data set on range of cell lines, the EC50 – broadly, the midpoint of the concentration-response curve – is no more than 50 µM. For the same molecule, the fraction unbound (as a rule, free concentration divided by total concentration) at 2 h, 5 um in [1] was […]. In data set [2], the solubility – broadly, how much of the substance goes into solution per volume – was […]. Also, the Papp (in general, a coefficient for how fast a substance crosses the barrier) in the data set “in vitro” is […].

(Values after US8987260B2, “Pharmaceutical compounds” (F. Hoffmann-La Roche AG, priority 2006, dated 2015).)
